Values quoted from earlier work as cited in patent US20180133151A1, “NEBULIZED TIOTROPIUM” (GLENMARK SPECIALTY S.A., priority 2016, published 2018).

C[N+]1(C)C2CC(OC(=O)C(O)(c3cccs3)c3cccs3)CC1C1OC12 (stereo not drawn) [Tiotropium bromide, (1+,2β,4β,7β)-7-[(hydroxydi-2-thienylacetyl)oxy]-9,9-dimethyl-3-oxa-9-azoniatricyclo[3.3.1.02,4]nonane bromide]
Solubility in methanol (methanol): soluble | Solubility in water (water): sparingly soluble
